According to the supplement of paper PMC4862054:

Key:
Experiment in all cases: normalised viability (% of control), CellTiter-Blue; higher = more viable cells (about 100 = DMSO control)
Conditions in all cases: incubation time: 72 h
HDQ-P1 [1] = test system: HDQ-P1
Summary of the method: (§1)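 The reported figure is normalised viability at a single listed concentration of the series. Breast cancer cell lines (20 µl suspension) went onto 384-well plates holding compound in 5 µl medium for 72 h. CellTiter-Blue (2.5 µl, 2 h, 37 °C) was read by fluorescence at 560/590 nm, and each plate was scaled to vehicle at 100 and a positive kill control at 0.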

MDA-MB-436 [2] = test system: MDA-MB-436
Summary of the method: as §1

MDA-MB-468 [3] = test system: MDA-MB-468
Summary of the method: as §1

MFM-223 [4] = test system: MFM-223
Summary of the method: as §1

MDA-MB-453 [5] = test system: MDA-MB-453
Summary of the method: as §1

HCC1599 [6] = test system: HCC1599
Summary of the method: as §1

CAL-148 [7] = test system: CAL-148
Summary of the method: as §1

CAL-85-1 [8] = test system: CAL-85-1
Summary of the method: as §1

CAL-51 [9] = test system: CAL-51
Summary of the method: as §1

HCC1937 [10] = test system: HCC1937
Summary of the method: as §1

HCC1143 [11] = test system: HCC1143
Summary of the method: as §1

SK-BR-3 [12] = test system: SK-BR-3
Summary of the method: as §1

BT-549 [13] = test system: BT-549
Summary of the method: as §1

CAL-120 [14] = test system: CAL-120
Summary of the method: as §1

Hs578T [15] = test system: Hs578T
Summary of the method: as §1

MDA-MB-231 [16] = test system: MDA-MB-231
Summary of the method: as §1

HDQ-P1 [17] = test system: HDQ-P1; remark: listed apart in the source
Method: (§2)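 DSRT, CellTiter-Blue viability, 72 h incubation. Signal is normalised to DMSO and benzethonium chloride controls. Value is the normalised response at dose 3.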

MDA-MB-436 [18] = test system: MDA-MB-436; remark: listed apart in the source
Method: as §2

BT-474 = test system: BT-474
Method: as §2

MDA-MB-468 [19] = test system: MDA-MB-468; remark: listed apart in the source
Method: as §2

MFM-223 [20] = test system: MFM-223; remark: listed apart in the source
Method: as §2

MDA-MB-453 [21] = test system: MDA-MB-453; remark: listed apart in the source
Method: as §2

HCC1599 [22] = test system: HCC1599; remark: listed apart in the source
Method: as §2

DU-4475 = test system: DU-4475
Method: as §2

CAL-148 [23] = test system: CAL-148; remark: listed apart in the source
Method: as §2

CAL-85-1 [24] = test system: CAL-85-1; remark: listed apart in the source
Method: as §2

CAL-51 [25] = test system: CAL-51; remark: listed apart in the source
Method: as §2

HCC1937 [26] = test system: HCC1937; remark: listed apart in the source
Method: as §2

HCC1143 [27] = test system: HCC1143; remark: listed apart in the source
Method: as §2

SK-BR-3 [28] = test system: SK-BR-3; remark: listed apart in the source
Method: as §2

BT-549 [29] = test system: BT-549; remark: listed apart in the source
Method: as §2

CAL-120 [30] = test system: CAL-120; remark: listed apart in the source
Method: as §2

Hs578T [31] = test system: Hs578T; remark: listed apart in the source
Method: as §2

MDA-MB-231 [32] = test system: MDA-MB-231; remark: listed apart in the source
Method: as §2

Cn1c(=O)n(-c2ccc(C(C)(C)C#N)cc2)c2c3cc(-c4cnc5ccccc5c4)ccc3ncc21 [NVP-BEZ235]
normalised viability (HDQ-P1 [1]; 3 nM): 94.5% | normalised viability (MDA-MB-436 [2]; 100 nM): 68.2% | normalised viability (MDA-MB-468 [3]; 100 nM): 37% | normalised viability (MFM-223 [4]; 100 nM): 24.5% | normalised viability (MDA-MB-453 [5]; 3 nM): 87.9% | normalised viability (HCC1599 [6]; 100 nM): 64.8% | normalised viability (CAL-148 [7]; 3 nM): 93% | normalised viability (CAL-85-1 [8]; 3 nM): 84.5% | normalised viability (CAL-51 [9]; 3 nM): 84.7% | normalised viability (HCC1937 [10]; 100 nM): 47.4% | normalised viability (HCC1143 [11]; 100 nM): 37.9% | normalised viability (SK-BR-3 [12]; 100 nM): 21.9% | normalised viability (BT-549 [13]; 100 nM): 21.7% | normalised viability (CAL-120 [14]; 100 nM): 17.6% | normalised viability (Hs578T [15]; 100 nM): 32.5% | normalised viability (MDA-MB-231 [16]; 100 nM): 26.8% | normalised viability (HDQ-P1 [17]; 1 nM): 102% | normalised viability (MDA-MB-436 [18]; 10 nM): 105% | normalised viability (BT-474; 10 nM): 91.6% | normalised viability (MDA-MB-468 [19]; 10 nM): 86.6% | normalised viability (MFM-223 [20]; 10 nM): 51.9% | normalised viability (MDA-MB-453 [21]; 1 nM): 96.5% | normalised viability (HCC1599 [22]; 10 nM): 84.7% | normalised viability (DU-4475; 1 nM): 101% | normalised viability (CAL-148 [23]; 1 nM): 108% | normalised viability (CAL-85-1 [24]; 1 nM): 110% | normalised viability (CAL-51 [25]; 1 nM): 106% | normalised viability (HCC1937 [26]; 10 nM): 59.9% | normalised viability (HCC1143 [27]; 10 nM): 70.9% | normalised viability (SK-BR-3 [28]; 10 nM): 88.4% | normalised viability (BT-549 [29]; 10 nM): 68.2% | normalised viability (CAL-120 [30]; 10 nM): 57.4% | normalised viability (Hs578T [31]; 10 nM): 56.7% | normalised viability (MDA-MB-231 [32]; 10 nM): 72.4%

C/C(=C\c1csc(C)n1)[C@@H]1C[C@@H]2O[C@]2(C)CCC[C@H](C)[C@H](O)[C@@H](C)C(=O)C(C)(C)[C@@H](O)CC(=O)O1 [Patupilone]
normalised viability (HDQ-P1 [1]; 3 nM): 107% | normalised viability (MDA-MB-436 [2]; 100 nM): 39.5% | normalised viability (MDA-MB-468 [3]; 100 nM): 49.5% | normalised viability (MFM-223 [4]; 100 nM): 45.9% | normalised viability (MDA-MB-453 [5]; 3 nM): 63.5% | normalised viability (HCC1599 [6]; 100 nM): 92.2% | normalised viability (CAL-148 [7]; 3 nM): 57.9% | normalised viability (CAL-85-1 [8]; 3 nM): 49.4% | normalised viability (CAL-51 [9]; 3 nM): 103% | normalised viability (HCC1937 [10]; 100 nM): 10.9% | normalised viability (HCC1143 [11]; 100 nM): 34.3% | normalised viability (SK-BR-3 [12]; 100 nM): 15.8% | normalised viability (BT-549 [13]; 100 nM): 27.2% | normalised viability (CAL-120 [14]; 100 nM): 23.2% | normalised viability (Hs578T [15]; 100 nM): 14.1% | normalised viability (MDA-MB-231 [16]; 100 nM): 20.1% | normalised viability (HDQ-P1 [17]; 1 nM): 125% | normalised viability (MDA-MB-436 [18]; 10 nM): 66.2% | normalised viability (BT-474; 10 nM): 66.4% | normalised viability (MDA-MB-468 [19]; 10 nM): 54.4% | normalised viability (MFM-223 [20]; 10 nM): 81.3% | normalised viability (MDA-MB-453 [21]; 1 nM): 88.7% | normalised viability (HCC1599 [22]; 10 nM): 111% | normalised viability (DU-4475; 1 nM): 95.4% | normalised viability (CAL-148 [23]; 1 nM): 93.1% | normalised viability (CAL-85-1 [24]; 1 nM): 73.7% | normalised viability (CAL-51 [25]; 1 nM): 104% | normalised viability (HCC1937 [26]; 10 nM): 25.5% | normalised viability (HCC1143 [27]; 10 nM): 66% | normalised viability (SK-BR-3 [28]; 10 nM): 28.4% | normalised viability (BT-549 [29]; 10 nM): 29.4% | normalised viability (CAL-120 [30]; 10 nM): 51.6% | normalised viability (Hs578T [31]; 10 nM): 36.7% | normalised viability (MDA-MB-231 [32]; 10 nM): 22.7%

CNNCc1ccc(C(=O)NC(C)C)cc1 [Procarbazine]
normalised viability (HDQ-P1 [1]; 30 nM): 103% | normalised viability (MDA-MB-436 [2]; 1000 nM): 88.8% | normalised viability (MDA-MB-468 [3]; 1000 nM): 124% | normalised viability (MFM-223 [4]; 1000 nM): 95.5% | normalised viability (MDA-MB-453 [5]; 30 nM): 114% | normalised viability (HCC1599 [6]; 1000 nM): 88.9% | normalised viability (CAL-148 [7]; 30 nM): 101% | normalised viability (CAL-85-1 [8]; 30 nM): 87.4% | normalised viability (CAL-51 [9]; 30 nM): 106% | normalised viability (HCC1937 [10]; 1000 nM): 77.8% | normalised viability (HCC1143 [11]; 1000 nM): 105% | normalised viability (SK-BR-3 [12]; 1000 nM): 113% | normalised viability (BT-549 [13]; 1000 nM): 98.8% | normalised viability (CAL-120 [14]; 1000 nM): 99% | normalised viability (Hs578T [15]; 1000 nM): 103% | normalised viability (MDA-MB-231 [16]; 1000 nM): 119% | normalised viability (HDQ-P1 [17]; 10 nM): 128% | normalised viability (MDA-MB-436 [18]; 100 nM): 97% | normalised viability (BT-474; 100 nM): 114% | normalised viability (MDA-MB-468 [19]; 100 nM): 102% | normalised viability (MFM-223 [20]; 100 nM): 92.8% | normalised viability (MDA-MB-453 [21]; 10 nM): 105% | normalised viability (HCC1599 [22]; 100 nM): 94.8% | normalised viability (DU-4475; 10 nM): 112% | normalised viability (CAL-148 [23]; 10 nM): 98.1% | normalised viability (CAL-85-1 [24]; 10 nM): 97.8% | normalised viability (CAL-51 [25]; 10 nM): 109% | normalised viability (HCC1937 [26]; 100 nM): 85.3% | normalised viability (HCC1143 [27]; 100 nM): 98.7% | normalised viability (SK-BR-3 [28]; 100 nM): 92% | normalised viability (BT-549 [29]; 100 nM): 111% | normalised viability (CAL-120 [30]; 100 nM): 106% | normalised viability (Hs578T [31]; 100 nM): 104% | normalised viability (MDA-MB-231 [32]; 100 nM): 105%
